Where no end group is shown, it is not given here.
Columns and labels:
[1] = test system: chymotrypsin; conditions: Pep5 variant; cited from earlier work
[2] = test system: at least some strains; conditions: when used with at least some strains; cited from earlier work
[3] = test system: MAP ATCC# 700535; experiment: MGIT 960 liquid culture of MAP isolate dilutions, time to positive; assay type: cell-based, Mycobacterium avium subsp. paratuberculosis; conditions: for TTP (days): 600 ul EY
Protocol: (§1) Middlebrook 7H9 broth was prepared by suspending 4.7 grams Middlebrook 7H9 dehydrated base (BD Diagnostics, Sparks, Md.) in 900 ml of double distilled water. The solution was autoclaved for 20 minutes at 121° C., and stored in a refrigerator when not in use. A 50% egg yolk suspension was stored in a refrigerator. Nisin was prepared in 1–2 M hydrochloride acid (HCl) at a concentration of 100 mg/ml. ANV cocktail (5 mg/ml) was prepared from the individual antibiotics and stored frozen.
Dilutions of MAP ATCC# 700535 were prepared as follows. A working stock vial, at 10^−2, stored at −70° C. freezer, was thawed in a 37° C. incubator. Using individually-wrapped, sterile glass pipettes, a serial dilution series was made in sterile 15 ml conical tubes. One (1) ml of MAP at 10^−2 was diluted into 9 ml of 7H9 medium and mixed well to yield a 10^−3 solution. One ml of this solution was diluted into another tube of 9 ml 7H9 to yield a 10^−4 solution. This process was repeated again to produce a 10^−5 solution. The serial dilutions were plated on HEYM flasks, 100 ul dilution per flask, and placed in an incubator.
(§2) Cultures were set up in MGIT™ tubes (BD Diagnostics, Sparks, Md.). MGIT™ tubes contain an oxygen-sensitive fluorescent compound, tris 4,7-diphenyl-1,10-phenanthroline ruthenium chloride pentahydrate, in silicone base that detects growth by increased fluorescence as oxygen consumption in the culture increases. The tubes were barcoded for scanning in a BACTEC™ MGIT™ 960 machine (BD Diagnostics, Sparks, Md.).
(§3) Vials of nisin and ANV, stored in a standard freezer, were thawed in a 37° C. incubator. Egg yolk, OADC or OACC (BD Diagnostics, Sparks, Md.) and 7H9, stored in a standard refrigerator, were warmed in a 37° C. incubator. Using sterile pipet tips (autoclaved), components were aliquoted into barcoded MGIT™ culture tubes as follows: OADC or OACC (800 μl); 50% egg yolk suspension (600 μl except for […] control tubes having 60 μl. The volume difference in volume made up by 7H9); 7H9; 5 mg/ml ANV (30 μl); 100 mg/ml nisin (quantity determined by desired final concentration); and organism sample (100 μl). 7H9 was added at the quantity needed to bring the final volume of each tube to 8.9 ml, so that the tubes had identical head space. After all components were added, tubes were tightly capped and inverted three times. The tubes were placed in the MGIT™ 960 machine and scanned in after they registered as unknown at the next hourly reading.
(§4) The experiment was designed to test a MAP isolate (ATCC# 700535) at three different concentrations (MAP 10^−3, MAP 10^−4 and MAP 10^−5). Three field samples (processed fecal matter) named Annabelle, Heidi and Meck 42 were also tested in the experiment. Seven conditions were tested for effectiveness against bacterial contamination in mycobacterial cultures: ANV alone, five different nisin concentrations and HCl, the diluent for nisin. Generally, each sample was tested in triplicate for each solution. There were eleven additional control tubes; two tubes for additives (5 μl nisin and 30 μl ANV) and 9 tubes for weekly performance (no ANV and 60 μl 50% egg yolk suspension; WP). The WP tubes were used to monitor test performance and reproducibility over time.

[4] = test system: Acid Fast bacillus; experiment: Acid fast smears (Ziehl-Neelson) of culture tubes; assay type: cell-based, Mycobacterium avium subsp. paratuberculosis; conditions: for Acid Fast Results or CFUs: per replicate tube
Source text: One of the most distinctive properties of Mycobacteria is the impermeability of their lipid-rich cell walls to various basic dyes, unless the dye is combined with phenol. Once stained, the cells resist decolorization with acidified organic solvents, and are, therefore called “acid fast.” Acid fast staining methods include, but are not limited to, Ziehl-Neelsen (ZN) carbolfuchsin staining, fluorochrome staining (auromine O and rhodamine B) and Kinyoun carbolfuchsin staining.

[5] = test system: bacterial contamination and MAP in processed fecal field samples (Annabelle, Heidi, Meck 42); experiment: MGIT 960 liquid culture of processed fecal field samples, time to positive / contamination; assay type: cell-based, Mycobacterium avium subsp. paratuberculosis; conditions: for TTP (days): 50000 ug nisin per tube, 1 tube only
Protocol: as §1
Vials of processed fecal field samples, Annabelle, Heide and Meck 42, stored at −70° C., were thawed in a 37° C. incubator. The samples had been previously processed according to the Cornell modified decontamination and inoculation method as described in Whitlock et al., supra (2000).
as §2, §3, §4

[6] = Meck and Annabelle samples, tubes 4F and 7F (10000 ug nisin)

In the case of “A19C Pep5: Pep5 variant from the literature (TAGPAIRASVKQCQKTLKCTRLFTVSCKGKNGCK; also: lantibiotic Pep5: thioether rings and dehydro residues not placed; UniProt P19578 27-60, looked up, variant A19C)”, the stability to chymotrypsin [1] is given as “more stable to chymotrypsin”.
For “L6V gallidermin: gallidermin variant from the literature (IASKFVCTPGCAKTGSFNSYCC; cysteine pairing not given here; also: lantibiotic lanthionine modifications not placed; UniProt P21838 31-52, looked up, variant L6V)”, the antibacterial activity [2] is listed as “enhanced antibacterial activity”.
With “nisin (ITSISLCTPGCKTGALMGCNMKTATCHCSIHVSK; cysteine pairing not given here; also: lantibiotic lanthionine modifications not placed; UniProt P13068 24-57, looked up) [34 amino acid pentacyclic class A lantibiotic peptide produced by Lactococcus lactis; stock 100 mg/ml in HCl]” the “TTP (days)” value ([3]; MAP 10^−4, 500 ug nisin per tube, three replicate tubes) was 19.3–20.6–No gu's, the “TTP (days)” value ([3]; MAP 10^−4, 50000 ug nisin per tube) was “No gu's” and the “TTP (days)” value ([3]; MAP 10^−5, 5000 ug nisin per tube, three replicate tubes) was 32.4–38.7–2 gu's. The “reduction of TTP compared to 30 ul ANV” value ([3]; nisin at 10,000 ug/tube, tubes 3A and 3F (MAP 10^−5)) was “approximately 30%”, the “inhibitory effect on MAP growth” value ([3]; nisin with 600 ul EY) was “little inhibitory effect on MAP growth” and the “Acid Fast Results or CFUs” value ([4]; Annabelle field sample, 10000 ug nisin per tube) was 4+Pos–4+Pos–ND. For the same substance, the “Acid Fast Results or CFUs” value ([4]; Heidi field sample, 500 ug nisin per tube) was 4+Pos–4+Pos–ND, the “Acid Fast Results or CFUs” value ([4]; Heidi field sample, 1000 ug nisin per tube) was 4+Pos–4+Pos–ND and the “Acid Fast Results or CFUs” value ([4]; Heidi field sample, 5000 ug nisin per tube) was 4+Pos–3+Pos–ND. The “Acid Fast Results or CFUs” value ([4]; Heidi field sample, 10000 ug nisin per tube) was 4+Pos–ND–ND, the “Acid Fast Results or CFUs” value ([4]; MAP 10^−3, 10000 ug nisin per tube) was 4+Pos–4+Pos–ND and the “Acid Fast Results or CFUs” value ([4]; Meck 42 field sample, 1000 ug nisin per tube) was “ND–ND–4+Pos”. For the same substance, the “Acid Fast Results or CFUs” value ([4]; Meck 42 field sample, 5000 ug nisin per tube) was “BC–4+Pos–4+Pos”, the “Acid Fast Results or CFUs” value ([4]; Meck 42 field sample, 10000 ug nisin per tube) was “ND–4+Pos–4+Pos” and the “AFB (acid-fast bacilli smears)” value [4, 6] was 4+Positive. For the same substance, the “time to recover TNTC animals” value ([5]; 600 ul 50% egg yolk suspension, nisin approximately 5000 to 10,000 ug per tube) was less than 15 days, the “TTP (days)” value ([5]; Annabelle field sample) was 43.7 (1 tube only) days and the “TTP (days)” value ([5]; Heidi field sample) was “No gu's (1 tube only)”. For the same substance, the “TTP (days)” value ([5]; Meck 42 field sample) was 54.4 (1 tube only) days, the “time at which tubes flagged positive” value [5, 6] was 14 to 17 days and the “control of non-mycobacterial contamination and MAP growth” value ([5]; field samples, particularly at 10,000 ug nisin) was “controlled non-mycobacterial contamination with little retardation of MAP growth”.
